Measurements as given in patent US11944702B2, “Skin care composition and method of making a skin care composition” (L'OREAL, priority 2017, dated 2024).

Assay: Stability of mixed skin care composition (base + booster compositions)
Type: physicochemical
Conditions: combination results in incompatible pH and separation of phases
Method: Referring again to FIG. 2, after the ingredient is determined, a compatibility profile is determined corresponding to the previously selected ingredients (step 207). The compatibility profile includes an inclusion or exclusion of additional ingredients to the formulation. That is, the compatibility profile provides acceptable combinations of booster composition and base composition combinations made with the previously selected ingredients that forms stable and efficacious skin care compositions. […] “Stable”, “Stability” and grammatical variations thereof, indicate a macroscopic homogeneous substance that doesn't have variation in texture or varying phases physically noticeable. In addition, microscopically the emulsion of the composition has the appearance of being homogeneous with the droplets and no dynamic changes in the microscope image. […] In addition, compatibility may include ingredients that retain efficacy of individual ingredients when combined with the other ingredients remain present in the formula over time periods and exposures to varying temperature.
Examples and comparative examples below are provided by the cosmetic dispending system as shown and described above. TABLE 3 includes the composition of Base B, the hydroalcoholic base, according to an embodiment of the disclosure.

compatibility with hydroalcoholic base: not compatible
SMILES: CC1=C(/C=C/C(C)=C/C=C/C(C)=C/CO)C(C)(C)CCC1 [retinol]
